Measurements as given in ChEMBL document CHEMBL1139708, “Sesquiterpene lactones are potent and irreversible inhibitors of the antibacterial target enzyme MurA” (Bioorg Med Chem Lett, 2006).
Activity calls are given as the source filed them. No cut-off for these calls is given here.

Key:
[1] = system: UDP-N-acetylglucosamine 1-carboxyvinyltransferase (Escherichia coli K-12), P0A749 [C115D]; experiment: Inhibition of Escherichia coli K12 Mur A C115D at 50 uM in presence of UNAG
[2] = biological target: UDP-N-acetylglucosamine 1-carboxyvinyltransferase (Pseudomonas aeruginosa (strain ATCC 15692 / PAO1 / 1C / PRS 101 / LMG12228), UniProt Q9HVW7); experiment: Inhibition of Pseudomonas aeruginosa PAO1293 MurA in presence of UNAG
[3] = biological target: UDP-N-acetylglucosamine 1-carboxyvinyltransferase (Escherichia coli K-12, UniProt P0A749); experiment: Inhibition of Escherichia coli K12 Mur A in presence of UNAG
[4] = Inhibition of MurA at 5 uM; details: TDE = time-dependent effect
[5] = Inhibition of MurA at 10 uM; details: TDE = time-dependent effect

Sequence of UDP-N-acetylglucosamine 1-carboxyvinyltransferase (Escherichia coli K-12), P0A749 [C115D] (P0A749 whole entry C115D): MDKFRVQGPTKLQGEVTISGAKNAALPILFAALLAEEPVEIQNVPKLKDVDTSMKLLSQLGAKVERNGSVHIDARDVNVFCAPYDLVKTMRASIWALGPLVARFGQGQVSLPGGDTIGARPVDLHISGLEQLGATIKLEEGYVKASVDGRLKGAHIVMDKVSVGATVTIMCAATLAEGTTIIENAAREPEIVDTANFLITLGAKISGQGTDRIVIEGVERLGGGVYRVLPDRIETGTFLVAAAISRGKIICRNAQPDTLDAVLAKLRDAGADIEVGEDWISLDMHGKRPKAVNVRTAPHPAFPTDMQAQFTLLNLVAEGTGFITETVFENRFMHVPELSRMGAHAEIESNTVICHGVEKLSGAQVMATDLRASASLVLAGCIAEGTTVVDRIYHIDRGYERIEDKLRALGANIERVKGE
Sequence of UDP-N-acetylglucosamine 1-carboxyvinyltransferase (Escherichia coli K-12, UniProt P0A749) (P0A749 whole entry): as the sequence (P0A749 whole entry C115D) above, with D115C counted along it
Sequence of UDP-N-acetylglucosamine 1-carboxyvinyltransferase (Pseudomonas aeruginosa (strain ATCC 15692 / PAO1 / 1C / PRS 101 / LMG12228), UniProt Q9HVW7) (Q9HVW7 whole entry): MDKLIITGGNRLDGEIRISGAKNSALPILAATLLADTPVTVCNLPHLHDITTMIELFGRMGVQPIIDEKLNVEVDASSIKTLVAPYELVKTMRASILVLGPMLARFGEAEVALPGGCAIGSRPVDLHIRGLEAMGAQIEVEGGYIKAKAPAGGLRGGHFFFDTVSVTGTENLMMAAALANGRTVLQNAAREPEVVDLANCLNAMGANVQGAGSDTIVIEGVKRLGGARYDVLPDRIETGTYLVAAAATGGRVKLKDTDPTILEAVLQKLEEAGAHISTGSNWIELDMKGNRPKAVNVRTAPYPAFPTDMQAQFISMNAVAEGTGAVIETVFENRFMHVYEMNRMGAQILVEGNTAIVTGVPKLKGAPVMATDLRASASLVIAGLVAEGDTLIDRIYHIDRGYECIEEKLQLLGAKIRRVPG

Structure (SMILES) | Activity [1] | IC50 [2] [µM] | IC50 [3] [µM] | Activity [4] | Activity [5]
C=C1C(=O)O[C@@H]2[C@@H]1CC[C@]1(C)CCC=C(C)[C@@H]21 | inactive | > 50 | > 50 |  | 
C=C1C(=O)O[C@@H]2C3O[C@]3(C)CC/C=C(\C)CC[C@@H]12 (some centres undefined) | inactive | 27.8 | > 50 |  | 
C=C1C(=O)O[C@@H]2/C=C(\C)CC/C=C(\C)CC[C@@H]12 (stereo in doubt; 7) | inactive |  |  |  | 
C=C1C(=O)O[C@@H]2/C=C(\C)CC/C=C(\C)CC[C@@H]12 (stereo in doubt; 7) [COSTUNOLIDE] |  | > 50 | > 50 |  | 
C=C1C(=O)O[C@@H]2/C=C(\C)CC/C=C(\C)CC[C@@H]12 (stereo in doubt; 10) | inactive |  |  |  | 
C=C1C(=O)O[C@@H]2/C=C(\C)CC/C=C(\C)CC[C@@H]12 (stereo in doubt; 10) [COSTUNOLIDE] |  | > 50 | > 50 |  | 
C=C1C(=O)O[C@@H]2/C=C(\CO)CC/C=C(\C)C[C@H](OC(=O)C(=C)[C@H](O)CO)[C@@H]12 [CNICIN] | inactive | 10.3 | 16.7 | tde | 
C=C(CO)C(=O)O[C@H]1CC(=C)[C@@H]2C[C@H](O)C(=C)[C@@H]2[C@H]2OC(=O)C(=C)[C@@H]21 [CYNAROPICRIN] | inactive | 12.1 | 19.5 | tde | 
C=C1CC[C@H]2C(=C)CC[C@H]3C(=C)C(=O)O[C@@H]3[C@@H]12 [DEHYDROCOSTUSLACTONE] | inactive | > 50 | > 50 |  | 
C=C1C(=O)O[C@@H]2/C=C(\C)CC/C=C(/C)C[C@@H](OC(=O)/C(=C/CO)CO)[C@@H]12 [EUPATORIOPICRIN] | inactive | 19.8 | 32.7 |  | tde
C[C@@H]1O[C@@H]1P(=O)(O)O [FOSFOMYCIN] | inactive | 10.5 | 0.118 | tde | 
C=C1C(=O)O[C@@H]2C[C@@]3(C)CCC[C@H](C)C3=C[C@H]12 [HELENINE] | inactive | > 50 | > 50 |  | 
